Laboratory results from article PMC7914897, “Cytotoxic Potential of a-Azepano- and 3-Amino-3,4-SeCo-Triterpenoids” (International Journal of Molecular Sciences, 2021).

Columns and labels:
SR (Leukemia) = assay: NCI-60 screen (SRB, 48 h); type: cell-based
MDA-MB-435 (Melanoma) = assay: NCI-60 screen (SRB, 48 h); type: cell-based; conditions: Homo sapiens
Leukemia subpanel = assay: cells; conditions: Homo sapiens
OVCAR-3 (Ovarian cancer) = assay: cells; conditions: Homo sapiens
Melanoma subpanel = assay: NCI-60 screen, subpanel; conditions: Homo sapiens
Prostate cancer subpanel = assay: NCI-60 screen, subpanel; conditions: Homo sapiens
CCRF-CEM (Leukemia) = assay: NCI-60 screen (SRB, 48 h); conditions: Homo sapiens
K-562 (Leukemia) = assay: NCI-60 screen (SRB, 48 h); conditions: Homo sapiens
MOLT-4 (Leukemia) = assay: NCI-60 screen (SRB, 48 h); conditions: Homo sapiens
RPMI-8226 (Leukemia) = assay: NCI-60 screen (SRB, 48 h); conditions: Homo sapiens
HOP-92 (NSC lung cancer) = assay: NCI-60 screen (SRB, 48 h); conditions: Homo sapiens
[1] = system: NCI-H226 (NSC lung cancer); assay: NCI-60 screen (SRB, 48 h)
COLO 205 (Colon cancer) = assay: NCI-60 screen (SRB, 48 h); conditions: Homo sapiens
HCC-2998 (Colon cancer) = assay: NCI-60 screen (SRB, 48 h); conditions: Homo sapiens
HCT-15 (Colon cancer) = assay: NCI-60 screen (SRB, 48 h); conditions: Homo sapiens
HT29 (Colon cancer) = assay: NCI-60 screen (SRB, 48 h); conditions: Homo sapiens
KM12 (Colon cancer) = assay: NCI-60 screen (SRB, 48 h); conditions: Homo sapiens
SW-620 (Colon cancer) = assay: NCI-60 screen (SRB, 48 h); conditions: Homo sapiens
SNB-19 (CNS cancer) = assay: NCI-60 screen (SRB, 48 h); conditions: Homo sapiens
MALME-3M (Melanoma) = assay: NCI-60 screen (SRB, 48 h); conditions: Homo sapiens
SK-MEL-5 (Melanoma) = assay: NCI-60 screen (SRB, 48 h); conditions: Homo sapiens
UACC-257 (Melanoma) = assay: NCI-60 screen (SRB, 48 h); conditions: Homo sapiens
IGROV1 (Ovarian cancer) = assay: NCI-60 screen (SRB, 48 h); conditions: Homo sapiens
TK-10 (Renal cancer) = assay: NCI-60 screen (SRB, 48 h); conditions: Homo sapiens
UO-31 (Renal cancer) = assay: NCI-60 screen (SRB, 48 h); conditions: Homo sapiens
DU-145 (Prostate cancer) = assay: NCI-60 screen (SRB, 48 h); conditions: Homo sapiens
MCF7 (Breast cancer) = assay: NCI-60 screen (SRB, 48 h); conditions: Homo sapiens
HS 578T (Breast cancer) = assay: NCI-60 screen (SRB, 48 h); conditions: Homo sapiens
T-47D (Breast cancer) = assay: NCI-60 screen (SRB, 48 h); conditions: Homo sapiens, T47D

C[C@H]1[C@H](C)CC[C@]2(CO)CC[C@]3(C)C(=CC[C@@H]4[C@@]5(C)CCCNC(C)(C)[C@@H]5CC[C@]43C)[C@H]12 [Compound 4, azepanouvaol]
TGI (SR (Leukemia)): 3.13 µM | GI50 (SR (Leukemia); Homo sapiens): 1.18 µM | GI50 (MDA-MB-435 (Melanoma); MDA-MB-435): 1.59 µM | IC (TGI) (MDA-MB-435 (Melanoma); MDA-MB-435, 48 h, read-out: TGI): 3.21 µM | CC50 (MDA-MB-435 (Melanoma); MDA-MB-435, read-out: LC50 (the source's name)): 6.49 µM | IC (TGI) (Leukemia subpanel; 48 h, read-out: TGI MG_MID): 3.28 µM | GI50 (Leukemia subpanel; read-out: GI50 MG_MID): 1.32 µM | CC50 (Leukemia subpanel; read-out: LC50 MG_MID): 8.02 µM | GI50 (OVCAR-3 (Ovarian cancer); OVCAR-3): 1.83 µM | IC (TGI) (OVCAR-3 (Ovarian cancer); OVCAR-3, 48 h, read-out: TGI): 3.42 µM | CC50 (OVCAR-3 (Ovarian cancer); OVCAR-3, read-out: LC50): 6.39 µM | IC (TGI) (Melanoma subpanel; 48 h, read-out: TGI MG_MID): 3.32 µM | GI50 (Melanoma subpanel; read-out: GI50 MG_MID): 1.74 µM | CC50 (Melanoma subpanel; read-out: LC50 MG_MID): 6.36 µM | IC (TGI) (Prostate cancer subpanel; 48 h, read-out: TGI MG_MID): 3.06 µM | GI50 (Prostate cancer subpanel; read-out: GI50 MG_MID): 1.64 µM | CC50 (Prostate cancer subpanel; read-out: LC50 MG_MID): 5.7 µM | GI50 (CCRF-CEM (Leukemia)): 1.74 µM | IC (TGI) (CCRF-CEM (Leukemia); 48 h, read-out: TGI): 3.93 µM | CC50 (CCRF-CEM (Leukemia); read-out: LC50): 8.88 µM | GI50 (K-562 (Leukemia); K562): 0.47 µM | IC (TGI) (K-562 (Leukemia); K562, 48 h, read-out: TGI): 2.02 µM | CC50 (K-562 (Leukemia); K562, read-out: LC50): 6.68 µM | GI50 (MOLT-4 (Leukemia); MOLT-4): 1.37 µM | IC (TGI) (MOLT-4 (Leukemia); MOLT-4, 48 h, read-out: TGI): 3.15 µM | CC50 (MOLT-4 (Leukemia); MOLT-4, read-out: LC50): 7.25 µM | GI50 (RPMI-8226 (Leukemia); RPMI-8226): 1.85 µM | IC (TGI) (RPMI-8226 (Leukemia); RPMI-8226, 48 h, read-out: TGI): 4.15 µM | CC50 (RPMI-8226 (Leukemia); RPMI-8226, read-out: LC50): 9.27 µM | GI50 (HOP-92 (NSC lung cancer); HOP-92): 1.52 µM | IC (TGI) (HOP-92 (NSC lung cancer); HOP-92, 48 h, read-out: TGI): 3.19 µM | CC50 (HOP-92 (NSC lung cancer); HOP-92, read-out: LC50): 6.67 µM | GI50 ([1]; Homo sapiens, NCI-H226): 2.07 µM | IC (TGI) ([1]; Homo sapiens, NCI-H226, 48 h, read-out: TGI): 4.25 µM | Growth % of the Most Sensitive Cell Lines ([1]; NCI-H226, 1 dose 10 µM): −99.04% | GI50 (COLO 205 (Colon cancer); COLO 205): 1.74 µM | IC (TGI) (COLO 205 (Colon cancer); COLO 205, 48 h, read-out: TGI): 3.46 µM | CC50 (COLO 205 (Colon cancer); COLO 205, read-out: LC50): 6.86 µM | GI50 (HCC-2998 (Colon cancer); HCC 2998): 1.75 µM | IC (TGI) (HCC-2998 (Colon cancer); HCC 2998, 48 h, read-out: TGI): 3.46 µM | CC50 (HCC-2998 (Colon cancer); HCC 2998, read-out: LC50): 6.85 µM | GI50 (HCT-15 (Colon cancer); HCT-15): 1.39 µM | IC (TGI) (HCT-15 (Colon cancer); HCT-15, 48 h, read-out: TGI): 2.75 µM | CC50 (HCT-15 (Colon cancer); HCT-15, read-out: LC50): 5.52 µM | GI50 (HT29 (Colon cancer); HT-29): 0.63 µM | IC (TGI) (HT29 (Colon cancer); HT-29, 48 h, read-out: TGI): 1.97 µM | CC50 (HT29 (Colon cancer); HT-29, read-out: LC50): 4.85 µM | GI50 (KM12 (Colon cancer); KM12): 1.84 µM | IC (TGI) (KM12 (Colon cancer); KM12, 48 h, read-out: TGI): 3.51 µM | CC50 (KM12 (Colon cancer); KM12, read-out: LC50): 6.68 µM | GI50 (SW-620 (Colon cancer); SW-620): 1.79 µM | IC (TGI) (SW-620 (Colon cancer); SW-620, 48 h, read-out: TGI): 3.54 µM | CC50 (SW-620 (Colon cancer); SW-620, read-out: LC50): 7.03 µM | GI50 (SNB-19 (CNS cancer); SNB-19): 1.86 µM | IC (TGI) (SNB-19 (CNS cancer); SNB-19, 48 h, read-out: TGI): 3.43 µM | CC50 (SNB-19 (CNS cancer); SNB-19, read-out: LC50): 6.31 µM | GI50 (MALME-3M (Melanoma)): 1.68 µM | IC (TGI) (MALME-3M (Melanoma); 48 h, read-out: TGI): 3.44 µM | CC50 (MALME-3M (Melanoma); read-out: LC50): 7.08 µM | GI50 (SK-MEL-5 (Melanoma); SK-MEL-5): 1.7 µM | IC (TGI) (SK-MEL-5 (Melanoma); SK-MEL-5, 48 h, read-out: TGI): 3.09 µM | CC50 (SK-MEL-5 (Melanoma); SK-MEL-5, read-out: LC50): 5.62 µM | GI50 (UACC-257 (Melanoma); UACC-257): 1.95 µM | IC (TGI) (UACC-257 (Melanoma); UACC-257, 48 h, read-out: TGI): 3.7 µM | CC50 (UACC-257 (Melanoma); UACC-257, read-out: LC50): 7.01 µM | GI50 (IGROV1 (Ovarian cancer); IGROV-1): 1.85 µM | IC (TGI) (IGROV1 (Ovarian cancer); IGROV-1, 48 h, read-out: TGI): 3.72 µM | CC50 (IGROV1 (Ovarian cancer); IGROV-1, read-out: LC50): 7.45 µM | GI50 (TK-10 (Renal cancer); TK-10): 1.84 µM | IC (TGI) (TK-10 (Renal cancer); TK-10, 48 h, read-out: TGI): 3.32 µM | CC50 (TK-10 (Renal cancer); TK-10, read-out: LC50): 5.97 µM | GI50 (UO-31 (Renal cancer); UO-31): 1.54 µM | IC (TGI) (UO-31 (Renal cancer); UO-31, 48 h, read-out: TGI): 2.99 µM | CC50 (UO-31 (Renal cancer); UO-31, read-out: LC50): 5.79 µM | GI50 (DU-145 (Prostate cancer); DU-145): 1.72 µM | IC (TGI) (DU-145 (Prostate cancer); DU-145, 48 h, read-out: TGI): 3.14 µM | CC50 (DU-145 (Prostate cancer); DU-145, read-out: LC50): 5.75 µM | GI50 (MCF7 (Breast cancer); MCF7): 1.58 µM | IC (TGI) (MCF7 (Breast cancer); MCF7, 48 h, read-out: TGI): 3.39 µM | CC50 (MCF7 (Breast cancer); MCF7, read-out: LC50): 7.28 µM | GI50 (HS 578T (Breast cancer)): 2.05 µM | IC (TGI) (HS 578T (Breast cancer); 48 h, read-out: TGI): 4.86 µM | CC50 (HS 578T (Breast cancer); read-out: LC50): 32.6 µM | GI50 (T-47D (Breast cancer)): 1.68 µM | IC (TGI) (T-47D (Breast cancer); 48 h, read-out: TGI): 4.03 µM | CC50 (T-47D (Breast cancer); read-out: LC50): 9.66 µM
